Values quoted from earlier work in PMC8843100, “Development of newly synthesised quinazolinone-based CDK2 inhibitors with potent efficacy against melanoma” (Journal of Enzyme Inhibition and Medicinal Chemistry, 2022).

Test system: cyclin-dependent kinase2
Design: method as in PMID 11354366
Conditions: CDK2; cited from earlier work

CC(C)(C)Nc1nc(C(F)(F)F)nc2ccc(-c3cccc(N)c3)cc12 [DIN-234325]
IC50: 600 ± 100 nM
